Blank lines part the entries; values can stand above or below the compound they belong to.
How the values were obtained:
[1] = Inhibition of HIV Rev activity; design: species or system Human immunodeficiency virus
[2] = Inhibition of nuclear export in human HeLa cells; assay type: functional, cell-based
[3] = tested on: HCT-15; test: Inhibition of colony formation in human HCT-15 cells at 1 uM incubated for 14 days by crystal violet staining based cell clonogenic assay; assay type: functional; settings: HCT-15, 336 h, time 14 day
[4] = tested on: HCT-15; test: Inhibition of colony formation in human HCT-15 cells at 4 uM incubated for 14 days by crystal violet staining based cell clonogenic assay; assay type: functional; settings: HCT-15, 336 h, time 14 day
[5] = tested on: HCT-15; test: Antiproliferative activity against human HCT-15 cells assessed as cell viability measured after 3 hrs by CCK-8 assay; assay type: functional, cell-based; settings: HCT-15, 3 h
[6] = tested on: HCT-15; test: Inhibition of colony formation in human HCT-15 cells at 2 uM incubated for 14 days by crystal violet staining based cell clonogenic assay; assay type: functional; settings: HCT-15, 336 h, time 14 day
[7] = tested on: HCT-15; test: Anticancer activity against human HCT-15 cells assessed as decrease in invading cells at 1 uM measured after 36 hrs; assay type: functional
[8] = tested on: HCT-15; test: Anticancer activity against human HCT-15 cells assessed as decrease in invading cells at 0.5 uM measured after 36 hrs; assay type: functional
[9] = tested on: HT-29; test: Antiproliferative activity against human HT-29 cells assessed as cell viability measured after 3 hrs by CCK-8 assay; assay type: functional, cell-based; settings: HT-29, 3 h
[10] = tested on: HCT-15; test: Antitumor activity against CRM1 knockout human HCT-15 cells; assay type: functional, cell-based
[11] = tested on: HCT-15; test: Antitumor activity against wild type human HCT-15 cells; assay type: functional, cell-based
[12] = tested on: HeLa; test: Growth inhibition of human HeLa cells measured after 48 hrs by MTT assay; assay type: functional, cell-based
[13] = tested on: SGC-7901; test: Growth inhibition of human SGC-7901 cells assessed as inhibition rate at 50 uM relative to control; assay type: functional
[14] = tested on: SGC-7901; test: Growth inhibition of human SGC-7901 cells assessed as inhibition rate at 5 uM relative to control; assay type: functional
[15] = tested on: SGC-7901; test: Growth inhibition of human SGC-7901 cells assessed as inhibition rate at 150 uM relative to control; assay type: functional
[16] = tested on: SGC-7901; test: Growth inhibition of human SGC-7901 cells assessed as inhibition rate at 100 uM relative to control; assay type: functional
[17] = Cytotoxicity against human NL9980 cells assessed as inhibition of tumor growth measured after 72 hrs by MTT assay; assay type: functional, cell-based; settings: NL9980, 72 h
[18] = Cytotoxicity against human L9981 cells assessed as inhibition of tumor growth measured after 72 hrs by MTT assay; assay type: functional, cell-based; settings: L9981, 72 h
[19] = tested on: SMMC-7721; test: Antitumor activity against human SMMC-7721 cells measured after 12 hrs; assay type: functional, cell-based; settings: SMMC-7721, 12 h
[20] = tested on: SMMC-7721; test: Antitumor activity against human SMMC-7721 cells measured after 6 hrs; assay type: functional, cell-based; settings: SMMC-7721, 6 h
[21] = tested on: SMMC-7721; test: Antitumor activity against human SMMC-7721 cells measured after 24 hrs; assay type: functional, cell-based; settings: SMMC-7721, 24 h
[22] = tested on: NSCLC; test: Antitumor activity against human NSCLC cells; assay type: functional, cell-based
[23] = tested on: SK-N-BE(2); test: Antiproliferative activity against human SK-N-BE(2) cells by CCK-8 assay; assay type: functional, cell-based; settings: SKNBE2
[24] = tested on: SH-SY5Y; test: Antiproliferative activity against human SH-SY5Y cells by CCK-8 assay; assay type: functional, cell-based

SMILES: [O-][S+](/C=C/CCN=C=S)c1cc(C(F)(F)F)cc(C(F)(F)F)c1 (stereo not given)
- IC50 [10]: 14 µM
- IC50 [11]: 0.151 µM

SMILES: COc1cc(/C=C/C(=O)CC(=O)/C=C/c2ccc(O)c(OC)c2)ccc1O [CURCUMIN]
- IC50 [12]: 32.4 µM

SMILES: C=C1C(=O)[C@]23[C@H](O)[C@H]1CC[C@H]2[C@@]12CO[C@]3(O)[C@@H](O)[C@@H]1C(C)(C)CC[C@@H]2O [ORIDONIN]
- inhibition at 50 µM [13]: 35%
- inhibition at 5 µM [14]: 20%
- inhibition at 150 µM [15]: 90%
- inhibition at 100 µM [16]: 75%

SMILES: COc1cc(/C=C/C(=O)N2CCC=CC2=O)cc(OC)c1OC [PIPLARTINE]
- IC50 [12]: 16.3 µM

SMILES: CC1=CC(=O)c2c(O)cccc2C1=O [PLUMBAGIN]
- IC50 [17]: 7.5 µM
- IC50 [18]: 9 µM
- IC50 [19]: 5.41 µM
- IC50 [20]: 36.1 µM
- IC50 [21]: 2.43 µM

More lines, main results first:

- IC50 [1]: 5.5 µM
SMILES: CC1=C(COCCC(C)(C)C)C(=O)N(Nc2ccc(C(F)(F)F)c(Cl)n2)C1=O

- EC50 [2]: 3.2 µM
SMILES: CC(C)CCNC/C=C/[S+]([O-])c1cc(C(F)(F)F)cc(C(F)(F)F)c1 (stereo not given)

- IC50 [5]: 1.2 µM
- IC50 [9]: 0.97 µM
SMILES: CC1=C(C)C(=O)N(Nc2ccc(Cl)c(Cl)n2)C1=O
- inhibition at 1 µM [3]: 58.5%
- inhibition at 4 µM [4]: 91.4%
- inhibition at 2 µM [6]: 83.2%
- inhibition at 1 µM [7]: 67%
- inhibition at 0.5 µM [8]: 44%

- IC50 [22]: 0.025 µM
SMILES: O=C(/C=C\n1cnc(-c2cc(C(F)(F)F)cc(C(F)(F)F)c2)n1)NNc1cnccn1 [SELINEXOR]

- IC50 [23]: 1.4 µM
- IC50 [24]: 0.3 µM
SMILES: O=C(/C=C\n1cnc(-c2cc(C(F)(F)F)cc(C(F)(F)F)c2)n1)NNc1ccccn1 [VERDINEXOR]
